{"source": "patent US20190358247A1", "about": "(The Medical College of Wisconsin, Inc., priority 2016, published 2019)", "key": {"[1]": {"conditions": "mouse", "method": "In an initial proof-of-concept experiment, syngeneic KPC cells expressing Firefly luciferase (FC1242-luc) were orthotopically implanted to the pancreas of C57BL/6 mice and tumor growth monitored using bioluminescence imaging (FIG. 15F). Mice orthotopically autografted with FC1242-luc cells were treated daily with 1 mg/kg or 150 mg/kg Met, or 1 mg/kg Mito-Met. […] Serum from these animals was collected, and hepatic and kidney toxicity tested using standard AST, ALT, AP, and BUN assays, respectively."}, "mitochondrial complex I": {"biological_target": "mitochondrial complex I (Homo sapiens, UniProt O75251+O75306+P03886)", "sequence (P03886 whole entry)": "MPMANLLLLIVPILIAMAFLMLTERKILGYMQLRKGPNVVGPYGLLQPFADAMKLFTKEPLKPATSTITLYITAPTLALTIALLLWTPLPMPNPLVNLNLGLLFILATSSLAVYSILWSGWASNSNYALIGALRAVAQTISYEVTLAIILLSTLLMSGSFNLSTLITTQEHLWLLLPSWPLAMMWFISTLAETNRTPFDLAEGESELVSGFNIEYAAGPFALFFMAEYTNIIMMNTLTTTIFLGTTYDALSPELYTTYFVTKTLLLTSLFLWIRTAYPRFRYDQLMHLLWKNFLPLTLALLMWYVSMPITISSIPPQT", "sequence (O75251 39-213)": "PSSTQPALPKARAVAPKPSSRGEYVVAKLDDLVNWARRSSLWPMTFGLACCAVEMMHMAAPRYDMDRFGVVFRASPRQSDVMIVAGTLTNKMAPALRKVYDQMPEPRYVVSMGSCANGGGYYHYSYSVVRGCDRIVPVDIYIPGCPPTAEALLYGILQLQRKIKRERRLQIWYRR", "sequence (P03897 whole entry, further chain)": "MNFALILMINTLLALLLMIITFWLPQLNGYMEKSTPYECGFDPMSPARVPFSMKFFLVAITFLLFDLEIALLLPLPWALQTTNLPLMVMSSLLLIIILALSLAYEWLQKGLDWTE", "sequence (O75306 34-463)": "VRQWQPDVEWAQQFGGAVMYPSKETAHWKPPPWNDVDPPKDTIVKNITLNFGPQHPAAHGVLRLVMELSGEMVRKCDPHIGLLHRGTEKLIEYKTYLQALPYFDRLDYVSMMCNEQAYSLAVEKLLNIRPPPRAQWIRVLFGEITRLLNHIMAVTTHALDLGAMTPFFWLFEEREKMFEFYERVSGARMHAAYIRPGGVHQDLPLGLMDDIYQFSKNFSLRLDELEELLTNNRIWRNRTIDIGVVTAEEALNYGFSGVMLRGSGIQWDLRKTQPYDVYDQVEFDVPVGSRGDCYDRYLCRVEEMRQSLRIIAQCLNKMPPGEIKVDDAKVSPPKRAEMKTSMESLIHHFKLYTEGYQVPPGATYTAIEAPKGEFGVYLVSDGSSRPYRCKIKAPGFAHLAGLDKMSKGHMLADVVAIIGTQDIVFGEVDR", "sequence (O75489 37-264, further chain)": "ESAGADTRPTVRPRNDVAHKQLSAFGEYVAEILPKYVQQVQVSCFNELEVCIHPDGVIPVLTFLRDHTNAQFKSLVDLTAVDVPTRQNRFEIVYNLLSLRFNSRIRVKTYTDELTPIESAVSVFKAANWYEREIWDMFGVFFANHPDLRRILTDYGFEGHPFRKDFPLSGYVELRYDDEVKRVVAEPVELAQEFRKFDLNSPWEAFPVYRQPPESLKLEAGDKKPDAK", "experiment": "Complex I oxygen consumption (pyruvate/malate) in permeabilized cells, Seahorse XF96", "type": "cell-based", "design": "IC50, complex I oxygen consumption; other: permeabilized MiaPaCa-2, added acutely", "method": "(§1) Respiratory enzyme activity in intact and permeabilized cells. The mitochondrial function in intact and permeabilized pancreatic cancer cells was measured using a Seahorse XF96 Extracellular Flux Analyzer (Seahorse Bioscience, North Billerica, Mass., USA). Unless specified otherwise, assays in intact cells were performed as previously described. Measurement of mitochondrial respiratory complexes in permeabilized cells was performed according to the manufacturer's instructions (Seahorse Bioscience). Briefly, intact cells were permeabilized using 1 nM Plasma Membrane Permeabilizer (PMP, Seahorse Bioscience) immediately before oxygen consumption rate (OCR) measurement by XF96. The oxygen consumption derived from mitochondrial complex I or complex II activity was measured by providing different substrates to mitochondria, e.g., pyruvate/malate for complex I and succinate for complex II activity. Rotenone, malonate and antimycin A were used as specific inhibitors of mitochondrial complex I, II and III activities, respectively.\nThe oxygen consumption rate was measured using the permeabilized MiaPaCa-2 cells in MAS buffer supplemented with pyruvate. The use of permeabilized cells avoids differences in cellular uptake of compounds. […] We tested the effect of pretreating cells with Mito-Met10 or Met using the permeabilized model. MiaPaCa-2 cells were treated with Met and Mito-Met10 for 24 h and the oxygen consumption studies were performed in these cells after permeabilization."}, "MiaPaCa-2 cells [2]": {"system": "MiaPaCa-2 cells", "experiment": "Three-dimensional spheroid growth in Matrigel", "type": "cell-based, human", "method": "Three-dimensional spheroid cell cultures of PDAC. MiaPaCa-2 cells (5,000) were seeded in 96-well plates containing Matrigel (Corning), used as scaffold. This typical 3D-cell culture system allows spheroids to form within the matrix. […] At days 3, 7, and 14 the wells were observed by bright-field microscopy and images acquired on a Nikon Eclipse Ti inverted microscope (Nikon instrument Inc., NY, USA). Spheroid-forming cells were counted using the Nikon NIS Elements imaging software (Nikon). Data are expressed as mean and SD of number of spheroids.\nWe tested the antiproliferative effects of Mito-Met and Met in the multicellular spheroid model (FIG. 11A). MiaPaCa-2 cells were cultured for 14 days in Matrigel and treated with Mito-Met10 and Met."}, "MiaPaCa-2 cells [3]": {"system": "MiaPaCa-2 cells", "experiment": "Oxygen consumption rate in intact cells, Seahorse XF96", "type": "cell-based, human", "conditions": "for effect on OCR: immediate", "method": "as §1\nEffects of Met and Mito-Met analogs on mitochondrial bioenergetics in MiaPaCa-2 cells. The oxygen consumption rate (OCR) and the extracellular acidification rate (ECAR) were measured as a readout of mitochondrial function and glycolysis using a Seahorse Bioscience XF96 extracellular flux analyzer. We compared the immediate OCR changes in response to different concentrations (e.g., IC50 or higher values determined by clonogenic assay) of Met, Mito-Met2, Mito-Met6, Mito-Met10, and phenformin (FIG. 13A).\nNext we monitored the mitochondrial OCR changes in MiaPaCa-2 cells after 24 h treatment with Met, Mito-Met analogs, and phenformin followed by a washout of the treatments and return to fresh cell culture media."}, "MiaPaCa-2 cells [4]": {"system": "MiaPaCa-2 cells", "experiment": "Intracellular uptake by LC-MS/MS", "procedure": "Cells were grown on 10 cm dishes and treated with the compounds for 24 h in full media.\nNext we investigated the relative uptake of different Mito-Met analogs (Mito-Met2, Mito-Met6, and Mito-Met10) and phenformin in MiaPaCa-2 cells (FIG. 12D). Cells were treated with respective Mito-Met analog (1 μM) for 1 h. Cells were lysed after washing and analyzed for Mito-Met analog by LC-MS."}, "MiaPaCa-2 cells [5]": {"system": "MiaPaCa-2 cells", "experiment": "Radiosensitization, clonogenic survival after X-radiation", "type": "cell-based, human", "method": "MiaPaCa2 cells (1000 cells/well) were cultured in quadruplicate overnight in 96-well plates and changed to fresh medium.\nRadiation experiments. […] The cells were then treated with X-radiation at a dose of 0, 2, 4, and 6 Gy. The control cells were treated with the same concentration of vehicle (0.1% DMSO) where appropriate. After irradiation, cells were suspended and seeded at various densities (100-8,000 cells per well) in 6-well plates for clonogenic assay as described above. The plates were kept within the incubator and media changed every 3-4 days for 2 weeks. Wells with 10-50 sufficiently large clones were chosen for calculating the cell survival fractions.\nEffect of Mito-Met and Met on PDAC radiosensitivity. Both control cells and cells were pretreated for 24 h with 1 mM Met or Mito-Met (1 μM) prior to X-radiation. Cell survival was measured by a clonogenic assay."}, "MiaPaCa-2 cells [6]": {"system": "MiaPaCa-2 cells", "experiment": "Sytox Green cytotoxicity assay", "type": "cell-based", "conditions": "100 μM, 24 h", "method": "Cytotoxicity assay. To determine the cytotoxicity of Mito-Met analogs and other TPP^+-conjugated to a long chain aliphatic hydrocarbon, we used the Sytox assay as described previously. MiaPaCa-2 cells were treated for 24 h, and dead cells were monitored in the presence of 200 nM Sytox Green (Invitrogen). The Sytox method labels the nuclei of dead cells yielding green fluorescence. Fluorescence intensities from the dead cells in 96-well plate were acquired in real time every 15 min after 4 h using a plate reader (BMG Labtech, Inc.) equipped with an atmosphere controller set at 37° C. and 5% CO2:95% air, using a fluorescence detection with 485 nm (excitation) and 535 nm (emission). To measure the total cell number, all of the samples in each treatment group were permeabilized by adding Triton X 100 (0.065%) in the presence of Sytox Green for 3 h, and maximal fluorescence intensities were taken as 100%. Data are represented as a percentage of dead cells after normalization to total cell number for each group.\nInduction of cell death was monitored by Sytox Green staining, as shown previously. MiaPaCa-2 cells were treated with Mito-Met10 (100 μM), Mito-CP (100 μM), or Met (30 mM) and other controls for 24 h and cell death was measured in real time."}}, "data": [{"smiles": "Br.N=C(N)NC(=N)NCCCCCCCCCC[P+](c1ccccc1)(c1ccccc1)c1ccccc1", "note": "[Mito-Met10]", "values": [{"measurement": "toxicity in vivo (hepatic and kidney)", "setting": "[1]", "result": "neither Met nor the mitochondria-targeted analog Mito-Met elicited toxicity"}, {"measurement": "Kidney BUN", "setting": "[1]; in vivo, 1 mg/kg", "result": "27 ± 4", "unit": "mg/dL"}, {"measurement": "Liver ALT", "setting": "[1]; in vivo, 1 mg/kg", "result": "26 ± 10", "unit": "IU/L"}, {"measurement": "Liver AST", "setting": "[1]; in vivo, 1 mg/kg", "result": "89 ± 16", "unit": "IU/L"}, {"measurement": "concentration at which OCR was inhibited", "setting": "mitochondrial complex I; permeabilized MiaPaCa-2, added acutely", "result": 10, "unit": "µM"}, {"measurement": "IC50", "setting": "mitochondrial complex I; read-out: IC50, complex I oxygen consumption, permeabilized MiaPaCa-2, compound added acutely (FIG. 20C)", "result": 2000, "unit": "nM"}, {"measurement": "fold more effective than Met in inhibiting PDAC proliferation, 2D and 3D cell growth assays", "setting": "MiaPaCa-2 cells [2]", "result": "1,000- to 10,000 fold"}, {"measurement": "PDAC spheroid growth", "setting": "MiaPaCa-2 cells [2]; 0.5 μM, 14 days", "result": "potently inhibited PPAC spheroid growth"}, {"measurement": "concentration at which OCR was inhibited", "setting": "MiaPaCa-2 cells [3]; 24 h treatment, washout", "result": 1, "unit": "µM"}, {"measurement": "effect on OCR", "setting": "MiaPaCa-2 cells [3]; 1 μM", "result": "did not inhibit OCR"}, {"measurement": "effect on OCR", "setting": "MiaPaCa-2 cells [3]; ≈10 μM", "result": "slight inhibition"}, {"measurement": "difference in intracellular uptake and retention, MiaPaCa-2 and MCF-10A cells", "setting": "MiaPaCa-2 cells [4]; LC-MS", "result": "four-fold"}, {"measurement": "cellular uptake relative to phenformin", "setting": "MiaPaCa-2 cells [4]; MiaPaCa-2, LC-MS", "result": "~100", "unit": "fold"}, {"measurement": "radiosensitizing concentration, fold lower than Met", "setting": "MiaPaCa-2 cells [5]; 1 μM versus Met 1 mM", "result": "1,000 fold"}, {"measurement": "radiosensitization", "setting": "MiaPaCa-2 cells [5]; 24 h pretreatment (1 mM Met, 1 μM Mito-Met) before X-radiation", "result": "as effective as 1 mM Met"}, {"measurement": "cell death, Sytox Green staining", "setting": "MiaPaCa-2 cells [6]", "result": "no detectable cell death"}]}]}
